The test system of this assay is c-myc in 22RV-1 cells. The experiment in a line: Human c-myc ELISA assay. The assay is classed as cell-based. Conditions: Homo sapiens; for Emax: 22Rv1, 18 h, read-out: Degradation of BRD4: Maximum inhibition (%) c-Myc ELISA in 22RV1 cells; for DC50: 22Rv1, read-out: Degradation of BRD4: DC50 (uM) c-Myc ELISA in 22RV1 cells. Put shortly: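 22RV-1 cells treated 18 h with 8-point 1:3 compound dilutions (final top 300 nM or 1 μM, 0.1% DMSO). Cells lysed in RIPA buffer with protease/phosphatase inhibitors, and c-myc protein in cleared lysate quantified by ELISA against a standard curve. DC50 reported for c-myc suppression.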

The DC50 is the concentration giving 50% degradation.

`Cc1ncsc1-c1ccc(CNC(=O)[C@@H]2C[C@@H](O)CN2C(=O)[C@H](C(C)C)n2cc(-c3ccnc(O[C@H]4C[C@@H](NC(=O)C[C@@H]5N=C(c6ccc(Cl)cc6)c6c(sc(C)c6C)-n6c(C)nnc65)C4)c3)cn2)cc1` [Example 178, (2S,4R)-4-hydroxy-N-{[4-(4-methyl-1,3-thiazol-5-yl)phenyl]methyl}-1-[(2S)-3-methyl-2-(4-{2-[(1,3-cis)-3-{2-[(9S)-7-(4-chlorophenyl)-4,5,13-trimethyl-3-thia-1,8,11,12-tetraazatricyclo[8.3.0.0^2,6]trideca-2(6),4,7,10,12-pentaen-9-yl]acetamido}cyclobutoxy]pyridin-4-yl}-1H-pyrazol-1-yl)butanoyl]pyrrolidine-2-carboxamide]: the Emax turned out to be 99% and the DC50 was in the range of 0.01 to 0.1 µM.

Regarding `Cc1ncsc1-c1ccc(CNC(=O)[C@@H]2C[C@@H](O)CN2C(=O)[C@@H](C(C)C)n2cc(-c3ccnc(O[C@@H](C)CNC(=O)C[C@@H]4N=C(c5ccc(Cl)cc5)c5c(sc(C)c5C)-n5c(C)nnc54)c3)cn2)cc1` [Example 179], the Emax was determined as 13.9% and the DC50 is > 1 µM.

Take `Cc1ncsc1-c1ccc(CNC(=O)[C@@H]2C[C@@H](O)CN2C(=O)[C@H](C(C)C)n2cc(-c3ccnc(O[C@@H](C)CNC(=O)C[C@@H]4N=C(c5ccc(Cl)cc5)c5c(sc(C)c5C)-n5c(C)nnc54)c3)cn2)cc1` [Example 180]: the Emax was 98.5% and the DC50 lay within 0.01 to 0.1 µM.

With `CC(=O)N[C@H](C(=O)N1C[C@H](O)C[C@H]1C(=O)NCc1ccc(-c2scnc2C)cc1OCCOCCCOc1ccc(C2=N[C@@H](CC(=O)Nc3ccccc3)c3nnc(C)n3-c3sc(C)c(C)c32)cc1)C(C)(C)C` [Example 181, (2S,4R)-1-[(2S)-2-acetamido-3,3-dimethylbutanoyl]-4-hydroxy-N-{[4-(4-methyl-1,3-thiazol-5-yl)-2-[2-(3-{4-[(9S)-4,5,13-trimethyl-9-[(phenylcarbamoyl)methyl]-3-thia-1,8,11,12-tetraazatricyclo[8.3.0.0^2,^6]trideca-2(6),4,7,10,12-pentaen-7-yl]phenoxy}propoxy)ethoxy]phenyl]methyl}pyrrolidine-2-carboxamide], the Emax came to 80.5% and the 50% degradation concentration (DC50) was in the range of 0.1 to 1 µM.

In the case of `Cc1ncsc1-c1ccc([C@H](C)NC(=O)[C@@H]2C[C@@H](O)CN2C(=O)[C@@H](NC(=O)COCCCOC2CN(C(=O)C[C@@H]3N=C(c4ccc(Cl)cc4)c4c(sc(C)c4C)-n4c(C)nnc43)C2)C(C)(C)C)cc1` [Example 182], the Emax is 100% and the DC50 was < 0.01 µM.

As for `Cc1ncsc1-c1ccc([C@H](C)NC(=O)[C@@H]2C[C@@H](O)CN2C(=O)[C@@H](NC(=O)CCc2cc(F)cc(O[C@H]3C[C@@H](NC(=O)C[C@@H]4N=C(c5ccc(Cl)cc5)c5c(sc(C)c5C)-n5c(C)nnc54)C3)c2)C(C)(C)C)cc1` [Example 183, (2S,4R)-1-[(2S)-2-(3-{3-fluoro-5-[(1,3-cis)-3-{2-[(9S)-7-(4-chlorophenyl)-4,5,13-trimethyl-3-thia-1,8,11,12-tetraazatricyclo[8.3.0.0^2,^6]trideca-2(6),4,7,10,12-pentaen-9-yl]acetamido}cyclobutoxy]phenyl}propanamido)-3,3-dimethylbutanoyl]-4-hydroxy-N-[(1S)-1-[4-(4-methyl-1,3-thiazol-5-yl)phenyl]ethyl]pyrrolidine-2-carboxamide], the Emax was 99% and the DC50 was < 0.01 µM.

With `Cc1ncsc1-c1ccc(CNC(=O)[C@@H]2C[C@@H](O)CN2C(=O)[C@@H](NC(=O)COCCCOc2ccc3c(c2)c2c(C(N)=O)cc(-c4c(C)noc4C)cc2n3Cc2ccccc2)C(C)(C)C)cc1` [Example 184], the Emax was found to be 91.5% and the DC50 lay in the range of 0.01 to 0.1 µM.

For `Cc1ncsc1-c1ccc([C@H](C)NC(=O)[C@@H]2C[C@@H](O)CN2C(=O)[C@@H](NC(=O)Cc2ccc(O[C@H]3C[C@@H](NC(=O)C[C@@H]4N=C(c5ccc(Cl)cc5)c5c(sc(C)c5C)-n5c(C)nnc54)C3)cc2)C(C)(C)C)cc1` [Example 185, (2S,4R)-1-[(2S)-3,3-dimethyl-2-(2-{4-[(1s,35)-3-{2-[(9S)-7-(4-chlorophenyl)-4,5,13-trimethyl-3-thia-1,8,11,12-tetraatetraazatricyclo[8.3.0.0^2,^6]trideca-2(6),4,7,10,12-pentaen-9-yl]acetamido}cyclobutoxy]phenyl}acetamido)butanoyl]-4-hydroxy-N-[(1S)-1-[4-(4-methyl-1,3-thiazol-5-yl)phenyl]ethyl]pyrrolidine-2-carboxamide], the Emax amounted to 99.5% and the DC50 is < 0.01 µM.

On to `Cc1ncsc1-c1ccc([C@H](C)NC(=O)[C@@H]2C[C@@H](O)CN2C(=O)[C@@H](NC(=O)[C@@H]2CC[C@H](COCCCNC(=O)C[C@@H]3N=C(c4ccc(Cl)cc4)c4c(sc(C)c4C)-n4c(C)nnc43)O2)C(C)(C)C)cc1` [Example 186], for which the Emax was found to be 94.5% and the DC50 lay in the range of 0.01 to 0.1 µM.

With `Cc1ncsc1-c1ccc([C@H](C)NC(=O)[C@@H]2C[C@@H](O)CN2C(=O)[C@@H](NC(=O)[C@H]2CC[C@@H](COCCCNC(=O)C[C@@H]3N=C(c4ccc(Cl)cc4)c4c(sc(C)c4C)-n4c(C)nnc43)O2)C(C)(C)C)cc1` [Example 187], the Emax was 98.5% and the DC50 fell in the range of 0.01 to 0.1 µM.

In the case of `Cc1ncsc1-c1ccc([C@H](C)NC(=O)[C@@H]2C[C@@H](O)CN2C(=O)[C@@H](NC(=O)/C=C/c2cc(F)cc(OC(C)CNC(=O)C[C@@H]3N=C(c4ccc(Cl)cc4)c4c(sc(C)c4C)-n4c(C)nnc43)c2)C(C)(C)C)cc1` (some centres unmarked) [Example 188], the Emax was found to be 95.4% and the DC50 is < 0.01 µM.

With `Cc1ncsc1-c1ccc([C@H](C)NC(=O)[C@@H]2C[C@@H](O)CN2C(=O)[C@@H](NC(=O)COc2ccnc(O[C@H]3C[C@@H](NC(=O)C[C@@H]4N=C(c5ccc(Cl)cc5)c5c(sc(C)c5C)-n5c(C)nnc54)C3)c2)C(C)(C)C)cc1` [Example 189], the Emax was determined as 95.9% and the DC50 lay in the range of 0.01 to 0.1 µM.

Turning to `Cc1ncsc1-c1ccc(CNC(=O)[C@@H]2C[C@@H](O)CN2C(=O)[C@@H](NC(=O)COc2ccccc2O[C@H]2C[C@@H](NC(=O)C[C@@H]3N=C(c4ccc(Cl)cc4)c4c(sc(C)c4C)-n4c(C)nnc43)C2)C(C)(C)C)cc1` [Example 190], the Emax is 91% and the DC50 was in the range of 0.01 to 0.1 µM.

For the molecule `Cc1ncsc1-c1ccc([C@H](C)NC(=O)[C@@H]2C[C@@H](O)CN2C(=O)[C@@H](NC(=O)CCc2ccnc(O[C@H]3C[C@@H](NC(=O)C[C@@H]4N=C(c5ccc(Cl)cc5)c5c(sc(C)c5C)-n5c(C)nnc54)C3)c2)C(C)(C)C)cc1` [Example 191], the Emax came out at 95% and the DC50 is < 0.01 µM.

As to `Cc1ncsc1-c1ccc([C@H](C)NC(=O)[C@@H]2C[C@@H](O)CN2C(=O)[C@@H](NC(=O)CCc2ccnc(O[C@H]3C[C@H](NC(=O)C[C@@H]4N=C(c5ccc(Cl)cc5)c5c(sc(C)c5C)-n5c(C)nnc54)C3)c2)C(C)(C)C)cc1` [Example 192], the Emax turned out to be 93% and the DC50 was < 0.01 µM.

As to `Cc1ncsc1-c1ccc([C@H](C)NC(=O)[C@@H]2C[C@@H](O)CN2C(=O)[C@@H](NC(=O)Cc2ccc(O[C@H]3C[C@H](NC(=O)C[C@@H]4N=C(c5ccc(Cl)cc5)c5c(sc(C)c5C)-n5c(C)nnc54)C3)cc2)C(C)(C)C)cc1` [Example 193, (2S,4R)-1-[(2S)-3,3-dimethyl-2-(2-{4-[(1,3trans)-3-{2-[(9S)-7-(4-chlorophenyl)-4,5,13-trimethyl-3-thia-1,8,11,12-tetraazatricyclo[8.3.0.0^2,^6]trideca-2(6),4,7,10,12-pentaen-9-yl]acetamido}cyclobutoxy]phenyl}acetamido)butanoyl]-4-hydroxy-N-[(1S)-1-[4-(4-methyl-1,3-thiazol-5-yl)phenyl]ethyl]pyrrolidine-2-carboxamide], the Emax came out at 100% and the DC50 was < 0.01 µM.

`Cc1ncsc1-c1ccc([C@H](C)NC(=O)[C@@H]2C[C@@H](O)CN2C(=O)[C@@H](NC(=O)Cc2cccc(O[C@H]3C[C@H](NC(=O)C[C@@H]4N=C(c5ccc(Cl)cc5)c5c(sc(C)c5C)-n5c(C)nnc54)C3)c2)C(C)(C)C)cc1` [Example 194]: the Emax is 92.4% and the DC50 is < 0.01 µM.

For the molecule `Cc1ncsc1-c1ccc([C@H](C)NC(=O)[C@@H]2C[C@@H](O)CN2C(=O)[C@@H](NC(=O)/C=C/c2cc(O[C@@H](C)CNC(=O)C[C@@H]3N=C(c4ccc(Cl)cc4)c4c(sc(C)c4C)-n4c(C)nnc43)ccc2F)C(C)(C)C)cc1` [Example 196], the Emax was found to be 94.5% and the DC50 was < 0.01 µM.

`Cc1ncsc1-c1ccc([C@H](C)NC(=O)[C@@H]2C[C@@H](O)CN2C(=O)[C@@H](NC(=O)/C=C/c2cc(O[C@H](C)CNC(=O)C[C@@H]3N=C(c4ccc(Cl)cc4)c4c(sc(C)c4C)-n4c(C)nnc43)ccc2F)C(C)(C)C)cc1` [Example 197]: the Emax was found to be 91.5% and the DC50 was < 0.01 µM.

Take `Cc1ncsc1-c1ccc(CNC(=O)[C@@H]2C[C@@H](O)CN2C(=O)[C@@H](C(C)C)n2cc(-c3cccc(O[C@@H](C)CNC(=O)C[C@@H]4N=C(c5ccc(Cl)cc5)c5c(sc(C)c5C)-n5c(C)nnc54)c3)cn2)cc1` [Example 198]: the Emax worked out at 16% and the half-maximal degradation concentration (DC50) was > 1 µM.

Regarding `Cc1ncsc1-c1ccc(CNC(=O)[C@@H]2C[C@@H](O)CN2C(=O)[C@H](C(C)C)n2cc(-c3cccc(O[C@@H](C)CNC(=O)C[C@@H]4N=C(c5ccc(Cl)cc5)c5c(sc(C)c5C)-n5c(C)nnc54)c3)cn2)cc1` [Example 199], the Emax amounted to 93% and the DC50 was < 0.01 µM.

Turning to `Cc1ncsc1-c1ccc([C@H](C)NC(=O)[C@@H]2C[C@@H](O)CN2C(=O)[C@@H](NC(=O)CCc2cc(F)cc(O[C@@H](C)CNC(=O)C[C@@H]3N=C(c4ccc(Cl)cc4)c4c(sc(C)c4C)-n4c(C)nnc43)c2)C(C)(C)C)cc1` [Example 200], the Emax was found to be 96.5% and the half-maximal degradation concentration (DC50) is < 0.01 µM.

(Values after patent US11554171B2, “Compounds and methods for the targeted degradation of bromodomain-containing proteins” (Arvinas Operations, Inc., priority 2015, dated 2023).)
